Data from patent US20140039044A1, “Hydroxylated Polymethoxyflavone Compositions” (WLLGEN, INC., priority 2006, published 2014).
Where two headings read alike, the source gives them in different places.

What was measured:
Format in all cases: cell-based, human
[1] = system: HL-60 cells; experiment: Cell cycle distribution by flow cytometry; conditions: 24 h
Procedure, shortened: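 HL-60 cells were treated for 24 h with compound at 5, 10, 25, 50 or 100 μM, or with DMSO. Cells were then ethanol-fixed, treated with Triton X-100/RNase and stained with propidium iodide. DNA content was measured by flow cytometry to give cell-cycle phase distribution.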

[2] = system: HL-60 cells; experiment: Apoptotic ratio by propidium iodide flow cytometry (AC50); conditions: Homo sapiens, HL-60 cells
Procedure, shortened: (§1)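 AC50 denotes the concentration that induces 50% apoptosis. It was derived from propidium iodide–DNA fluorescence measured by flow cytometry after ethanol fixation and RNase treatment. Cells were seeded at 2×10^5, grown 24 h, then exposed to test compounds for 24 h.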

[3] = system: AGS cells; experiment: as above; conditions: Homo sapiens, AGS cells
Procedure, shortened: as §1

[4] = system: COLO205 cells; experiment: as above; conditions: Homo sapiens, COLO 205, COLO205 cells
Procedure, shortened: as §1

[5] = system: AGS cells; experiment: Cell cycle distribution by flow cytometry; conditions: 24 h
Procedure, shortened: (§2)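 Human cancer cells (2×10^5 per dish) exposed 24 h to compound at 5–100 μM, or DMSO. Cells ethanol-fixed at −20° C overnight, RNase/Triton-treated at 37° C for 30 min, then stained with propidium iodide. DNA content read by FACScan flow cytometry to give phase distribution.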

[6] = system: COLO205 cells; experiment: Cell cycle distribution by flow cytometry; conditions: 24 h; for Cell Cycle Distribution G0/G1 / Cell Cycle Distribution G2/M / Cell Cycle Distribution S: COLO205 cells
Procedure, shortened: as §2

[7] = system: HT-29 cells; experiment: Cell cycle distribution by flow cytometry; conditions: for Cell Cycle Distribution G0/G1 / Cell Cycle Distribution G2/M / Cell Cycle Distribution S: 24 h
Procedure, shortened: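 Cells were treated 24 h with compound at 5, 10, 25, 50 or 100 μM, or with DMSO. They were then ethanol-fixed, RNase-treated and stained with propidium iodide. DNA content was measured by FACScan flow cytometry to give cell-cycle phase distribution.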

[8] = Table 4, read-out: Apoptosis-inducing AC50 (concentration required for 50% apoptosis)
[9] = read-out: Apoptosis-inducing AC50

Compound: COc1ccc(-c2cc(=O)c3c(OC)c(OC)c(OC)c(OC)c3o2)cc1OC [Compound A, 5,6,7,8,3′,4′-hexamethoxyflavone, reference compound]
- Cell Cycle Distribution G0/G1 ([1]; 5 μM, Table 5): 45.81 ± 0.16
- Cell Cycle Distribution G2/M ([1]; 5 μM, Table 5): 0.02 ± 0.01
- Cell Cycle Distribution S ([1]; 5 μM, Table 5): 54.29 ± 0.01
- Cell Cycle Distribution G0/G1 ([1]; 5 μM, Table 10): 41.42 ± 0.14
- Cell Cycle Distribution G2/M ([1]; 5 μM, Table 10): 8.15 ± 0.49
- Cell Cycle Distribution S ([1]; 5 μM, Table 10): 50.73 ± 0.42
- Cell Cycle Distribution G0/G1 ([1]; 10 μM, Table 5): 53.84 ± 0.45
- Cell Cycle Distribution G2/M ([1]; 10 μM, Table 5): 5.73 ± 1.50
- Cell Cycle Distribution S ([1]; 10 μM, Table 5): 40.44 ± 1.06
- Cell Cycle Distribution G0/G1 ([1]; 10 μM, Table 10): 50.36 ± 1.06
- Cell Cycle Distribution G2/M ([1]; 10 μM, Table 10): 2.75 ± 0.57
- Cell Cycle Distribution S ([1]; 10 μM, Table 10): 46.88 ± 0.28
- Cell Cycle Distribution G0/G1 ([1]; 25 μM, Table 5): 61.96 ± 3.55
- Cell Cycle Distribution G2/M ([1]; 25 μM, Table 5): 5.93 ± 0.49
- Cell Cycle Distribution S ([1]; 25 μM, Table 5): 32.12 ± 4.04
- Cell Cycle Distribution G0/G1 ([1]; 25 μM, Table 10): 66.18 ± 0.71
- Cell Cycle Distribution G2/M ([1]; 25 μM, Table 10): 2.77 ± 0.85
- Cell Cycle Distribution S ([1]; 25 μM, Table 10): 31.06 ± 0.99
- Cell Cycle Distribution G0/G1 ([1]; 50 μM, Table 5): 62.37 ± 1.85
- Cell Cycle Distribution G2/M ([1]; 50 μM, Table 5): 6.44 ± 0.08
- Cell Cycle Distribution S ([1]; 50 μM, Table 5): 31.20 ± 1.76
- Cell Cycle Distribution G0/G1 ([1]; 50 μM, Table 10): 64.40 ± 0.49
- Cell Cycle Distribution G2/M ([1]; 50 μM, Table 10): 7.67 ± 0.57
- Cell Cycle Distribution S ([1]; 50 μM, Table 10): 27.93 ± 0.35
- Cell Cycle Distribution G0/G1 ([1]; 100 μM, Table 5): 65.00 ± 3.41
- Cell Cycle Distribution G2/M ([1]; 100 μM, Table 5): 4.18 ± 0.33
- Cell Cycle Distribution S ([1]; 100 μM, Table 5): 30.81 ± 3.08
- Cell Cycle Distribution G0/G1 ([1]; 100 μM, Table 10): 62.05 ± 0.14
- Cell Cycle Distribution G2/M ([1]; 100 μM, Table 10): 7.35 ± 0.14
- Cell Cycle Distribution S ([1]; 100 μM, Table 10): 30.60 ± 0.35
- Cell cycle arrest, in words ([1]; 25-100 μM): significant G1 arrest
- AC50 [2, 8]: > 100 µg/mL
- AC50 [2, 9]: > 100 µM
- AC50 [3, 8]: > 100 µg/mL
- AC50 [3, 9]: > 100 µM
- AC50 [4, 8]: > 100 µg/mL
- AC50 [4, 9]: > 100 µM
- Cell Cycle Distribution G0/G1 ([5]; 5 μM, Table 7): 58.67 ± 0.61
- Cell Cycle Distribution G2/M ([5]; 5 μM, Table 7): 13.50 ± 1.34
- Cell Cycle Distribution S ([5]; 5 μM, Table 7): 27.84 ± 1.94
- Cell Cycle Distribution G0/G1 ([5]; 5 μM, Table 11): 44.7 ± 0.71
- Cell Cycle Distribution G2/M ([5]; 5 μM, Table 11): 0.4 ± 0.57
- Cell Cycle Distribution S ([5]; 5 μM, Table 11): 54.4 ± 0.64
- Cell Cycle Distribution G0/G1 ([5]; 10 μM, Table 7): 59.74 ± 0.36
- Cell Cycle Distribution G2/M ([5]; 10 μM, Table 7): 13.57 ± 1.23
- Cell Cycle Distribution S ([5]; 10 μM, Table 7): 26.70 ± 0.87
- Cell Cycle Distribution G0/G1 ([5]; 10 μM, Table 11): 47.1 ± 0.28
- Cell Cycle Distribution G2/M ([5]; 10 μM, Table 11): 5.0 ± 0.64
- Cell Cycle Distribution S ([5]; 10 μM, Table 11): 49.1 ± 0.64
- Cell Cycle Distribution G0/G1 ([5]; 25 μM, Table 7): 59.56 ± 1.98
- Cell Cycle Distribution G2/M ([5]; 25 μM, Table 7): 13.50 ± 0.35
- Cell Cycle Distribution S ([5]; 25 μM, Table 7): 26.95 ± 2.33
- Cell Cycle Distribution G0/G1 ([5]; 25 μM, Table 11): 52.9 ± 1.06
- Cell Cycle Distribution G2/M ([5]; 25 μM, Table 11): 2.8 ± 0.35
- Cell Cycle Distribution S ([5]; 25 μM, Table 11): 43.7 ± 0.42
- Cell Cycle Distribution G0/G1 ([5]; 50 μM, Table 7): 56.45 ± 0.03
- Cell Cycle Distribution G2/M ([5]; 50 μM, Table 7): 15.25 ± .33
- Cell Cycle Distribution S ([5]; 50 μM, Table 7): 28.31 ± 0.36
- Cell Cycle Distribution G0/G1 ([5]; 50 μM, Table 11): 53.8 ± 0.64
- Cell Cycle Distribution G2/M ([5]; 50 μM, Table 11): 6.6 ± 0.69
- Cell Cycle Distribution S ([5]; 50 μM, Table 11): 41.3 ± 0.92
- Cell Cycle Distribution G0/G1 ([5]; 100 μM, Table 7): 46.13 ± 4.96
- Cell Cycle Distribution G2/M ([5]; 100 μM, Table 7): 15.54 ± 1.10
- Cell Cycle Distribution S ([5]; 100 μM, Table 7): 28.33 ± 3.86
- Cell Cycle Distribution G0/G1 ([5]; 100 μM, Table 11): 66.9 ± 0.14
- Cell Cycle Distribution G2/M ([5]; 100 μM, Table 11): 3.2 ± 0.57
- Cell Cycle Distribution S ([5]; 100 μM, Table 11): 31.0 ± 0.64
- Cell Cycle Distribution G0/G1 ([6]; 5 μM, Table 6): 63.83 ± 0.29
- Cell Cycle Distribution G2/M ([6]; 5 μM, Table 6): 8.25 ± 0.69
- Cell Cycle Distribution S ([6]; 5 μM, Table 6): 27.93 ± 0.98
- Cell Cycle Distribution G0/G1 ([6]; 5 μM, Table 12): 63.63 ± 0.53
- Cell Cycle Distribution G2/M ([6]; 5 μM, Table 12): 1.58 ± 0.04
- Cell Cycle Distribution S ([6]; 5 μM, Table 12): 34.80 ± 0.57
- Cell Cycle Distribution G0/G1 ([6]; 10 μM, Table 6): 71.13 ± 0.65
- Cell Cycle Distribution G2/M ([6]; 10 μM, Table 6): 7.42 ± 0.48
- Cell Cycle Distribution S ([6]; 10 μM, Table 6): 21.45 ± 0.17
- Cell Cycle Distribution G0/G1 ([6]; 10 μM, Table 12): 67.25 ± 0.38
- Cell Cycle Distribution G2/M ([6]; 10 μM, Table 12): 0.25 ± 0.25
- Cell Cycle Distribution S ([6]; 10 μM, Table 12): 32.50 ± 0.13
- Cell Cycle Distribution G0/G1 ([6]; 25 μM, Table 6): 84.21 ± 4.38
- Cell Cycle Distribution G2/M ([6]; 25 μM, Table 6): 4.50 ± 0.35
- Cell Cycle Distribution S ([6]; 25 μM, Table 6): 14.29 ± 0.22
- Cell Cycle Distribution G0/G1 ([6]; 25 μM, Table 12): 69.94 ± 1.02
- Cell Cycle Distribution G2/M ([6]; 25 μM, Table 12): 0.64 ± 0.07
- Cell Cycle Distribution S ([6]; 25 μM, Table 12): 27.42 ± 1.09
- Cell Cycle Distribution G0/G1 ([6]; 50 μM, Table 6): 76.82 ± 1.48
- Cell Cycle Distribution G2/M ([6]; 50 μM, Table 6): 6.30 ± 0.08
- Cell Cycle Distribution S ([6]; 50 μM, Table 6): 16.89 ± 1.39
- Cell Cycle Distribution G0/G1 ([6]; 50 μM, Table 12): 82.40 ± 0.63
- Cell Cycle Distribution G2/M ([6]; 50 μM, Table 12): 0.29 ± 0.08
- Cell Cycle Distribution S ([6]; 50 μM, Table 12): 17.50 ± 0.45
- Cell Cycle Distribution G0/G1 ([6]; 100 μM, Table 6): 77.12 ± 2.00
- Cell Cycle Distribution G2/M ([6]; 100 μM, Table 6): 5.11 ± .46
- Cell Cycle Distribution S ([6]; 100 μM, Table 6): 17.74 ± 2.40
- Cell Cycle Distribution G0/G1 ([6]; 100 μM, Table 12): 65.60 ± 0.65
- Cell Cycle Distribution G2/M ([6]; 100 μM, Table 12): 6.20 ± 1.25
- Cell Cycle Distribution S ([6]; 100 μM, Table 12): 28.21 ± 0.60
- Cell cycle arrest, in words ([6]; COLO 205 cells, compound A 50 μM, compound I 100 μM): trends in G1 arrest
- Cell Cycle Distribution G0/G1 ([7]; 5 μM): 63.67 ± 0.14
- Cell Cycle Distribution G2/M ([7]; 5 μM): 8.22 ± 0.37
- Cell Cycle Distribution S ([7]; 5 μM): 28.12 ± 0.52
- Cell Cycle Distribution G0/G1 ([7]; 10 μM): 66.57 ± 0.66
- Cell Cycle Distribution G2/M ([7]; 10 μM): 7.45 ± 0.28
- Cell Cycle Distribution S ([7]; 10 μM): 26.98 ± 0.94
- Cell Cycle Distribution G0/G1 ([7]; 25 μM): 69.67 ± 1.15
- Cell Cycle Distribution G2/M ([7]; 25 μM): 7.58 ± 0.00
- Cell Cycle Distribution S ([7]; 25 μM): 22.76 ± 1.15
- Cell Cycle Distribution G0/G1 ([7]; 50 μM): 83.26 ± 0.46
- Cell Cycle Distribution G2/M ([7]; 50 μM): 4.97 ± 0.67
- Cell Cycle Distribution S ([7]; 50 μM): 11.79 ± 1.13
- Cell Cycle Distribution G0/G1 ([7]; 100 μM): 89.49 ± 0.57
- Cell Cycle Distribution G2/M ([7]; 100 μM): 5.60 ± 0.57
- Cell Cycle Distribution S ([7]; 100 μM): 4.92 ± 0.00
- Cell cycle arrest, in words ([7]; 5-100 μM, 24 h exposure): significant accumulation of cells in G1 phase
